# Measurements published in patent publication US20260224613A1, “Use Of Inorganic Nitrate For Preventing Restenosis And/Or Device Thrombosis” (Queen Mary University of London, priority 2023, published 2026).
# Key:
# [1] = tested on: Human Coronary Arterial Smooth Muscle Cells (HCSMC); settings: NaNO2 3 μM; hypoxia 0.1% O2 24 h, re-oxygenation 8, 24 and 48 h; FIG. 2
# Procedure: (§1) FIG. 2—Effects of NaNO2 on cell proliferation of Human Coronary Arterial Endothelial Cells (HCAEC) and Human Coronary Arterial Smooth Muscle Cells (HCSMC) exposed to Ischaemia/Reperfusion injury. Cell Count of HCAEC and HCASMC respectively under hypoxia (0.1% O2, 24 h) and re-oxygenation (normoxia, 8, 24 and 48 h post ischaemia)) in the absence and presence of NaNO2 3 μM. n=7/group for HCAEC and n=5/group for HCASMC. Results are expressed as % changes of the respective matched normoxia controls. Data represent mean±SEM of the number of independent experiments performed as indicated above. Statistical significance determined using two-way ANOVA followed by post-test comparing response at each timepoint between treatments determined using Sidak's multiple comparison test.
# [2] = tested on: Human Coronary Arterial Endothelial Cells (HCAEC); settings: NaNO2 3 μM; hypoxia 0.1% O2 24 h, re-oxygenation 8, 24 and 48 h; FIG. 2
# Procedure: as §1
smiles,measurement,setting,value
"O=N[O-].[Na+] [nitrite, NaNO2]",growth of vascular smooth muscle cells following an ischaemia-reperfusion insult,[1],suppressing
same,endothelial cell growth following an ischaemia-reperfusion insult,[2],improves
